# Data as given in patent publication US4656178A (priority 1985, dated 1987).
# Where a name gives a salt, the structure may show the parent alone. Read-outs that look alike come from different tables or passages of the source.
# What was measured:
# aconitine arrhythmia [1] = assay: animal or person; type: in vivo, rats; details: for perdition of narcotized rats prior to administration of aconitine: doses of 20 mg/kg and more; for duration of prevention of aconitine arrhythmia: doses of 5-10 mg/kg; for antiarrhythmic index (LD50/ED50): prophylactic effect, aconitine arrhythmia
# Procedure: The assessment of the antiarrhythmic activity of the preparation was effected in acute and chronical experiments on rats, rabbits, cats and dogs. Various experimental models of arrhythmia were also used.
# (§1) The atrioventricular arrhythmia caused by aconitine is one of the most reliable models for forecasting the efficiency of the antiarrhythmic action of the novel preparation in clinics. The experiments were conducted on both narcotized and non-narcotized animals. The preparation was administered per os, intramuscularly, intraperitoneally and intravenously 5 to 15 minutes prior to or 3-5 minutes after the administration of aconitine.
# In doses of 0.2-0.5 mg/kg the preparation of this invention prevents the appearance of aconitine arrhythmia in 100% of the rats. […] Under similar experimental conditions a preliminary administration of novocainamide in the dose of 60 mg/kg intravenously produced an antiarrhythmic effect in 50% of the animals.
# aconitine arrhythmia [2] = type: in vivo, rats; details: for efficacy against developing aconitine arrhythmia: similar conditions, dose not stated
# Procedure: as §1
# The antiarrhythmic activity of the pharmaceutical composition according to the present invention upon administration thereof against the background of a developing aconitine arrhythmia (therapeutic effect) was studied on 110 narcotized rats. The preparation was intravenously administered at intervals of 3-6 minutes against the background of the originated arrhythmia.
# [3] = tested on: cardiac arrhythmia induced by barium chloride; assay: cardiac arrhythmia induced by barium chloride; type: in vivo, narcotized rats and intact rabbits
# Procedure: The study of the antiarrhythmic activity of the preparation according to the present invention on a model of cardiac arrhythmia induced by barium chloride was carried out on 56 narcotized rats and 16 intact rabbits. The preparation of the present invention in the dose of 0.1 mg/kg injected 10 minutes prior to administration of barium prevented the development of arrhythmia in 86.6% of the animals.
# [4] = tested on: cardiac arrhythmia caused by ligation of the descending branch of the left coronary artery; assay: cardiac arrhythmia caused by ligation of the descending branch of the left coronary artery (Harris method) in dogs; type: in vivo
# Procedure: The effect of the preparation according to the present invention on the cardiac arrhythmia caused by ligation of the descending branch of the left coronary artery by the Harris method was studied in experiments on dogs. The preparation according to the present invention was intravenously administered on the first and second post-operative days. Preliminarily, prior to every experiment 30 to 45 minutes before the administration of the preparation the background changes of the dogs' electrocardiogram (ECG) were recorded. […] In 40% thereof a full suppression of ectopic contractions was noticed for 3-3.5 hours, whereafter arrhythmia appeared with the intensity thereof not reaching the initial background during 7 hours.
# [5] = tested on: arrhythmia caused by electrical irritation; assay: arrhythmia caused by electrical irritation of the right auricle and apex of the left ventricle; type: in vivo, dogs and cats; details: for onset of antiarrhythmic effect: after intravenous administration; for bradycardia / reduction of arterial pressure: all tested doses
# [6] = tested on: cardiac conductive system; type: in vivo, narcotized rats, cats, intact rabbits and dogs; details: for rhythm of cardiac contractions: high doses
# Text: To investigate the character of the effect produced on the functions of the cardiac conductive system by the preparation according to the present invention, the ECG changes appearing in narcotized rats, cats, intact rabbits and dogs under the action of the preparation of this invention were studied. […] The effect of the preparation is retained for a long time.
# [7] = infiltration anesthesia in rabbits (intracutaneous); type: in vivo; details: 0.5% solution
# Procedure: The local anesthetic effect of the preparation was studied on 14 intact rabbits. […] The results of the experiments on determination of the ability of the preparation to cause infiltration anesthesia have shown that 10-15 minutes after intracutaneous administration, to rabbits, of 0.01-0.05% and 0.1% solutions of the preparation anesthesia occurs which is characterized by an increased threshold of a pain irritation; the duration of the effect is 20 to 48 hours. Under the same conditions of the experiment, the local anesthetic effect of a 0.5% solution of novocaine lasts for 90 minutes on the average.
# frog's heart = assay: amplitude of cardiac contractions of isolated frog's heart (Schtraube)
# Text: To find out a negative inotropic effect on the heart tissue, two series of experiments have been carried out:
# (1) the study of the effect of the preparation of this invention on the amplitude of the cardiac contractions of a frog's heart isolated according to Schtraube;
# [8] = tested on: cardiotoxic effect of the preparation; assay: sodium bicarbonate at cardiotoxic effect of the preparation in dogs
structure (smiles),measurement,setting,value
COc1ccc(CCN(C)CCCC(C#N)(c2ccc(OC)c(OC)c2)C(C)C)cc1OC (stereo not drawn) [isoptin],prevention of aconitine arrhythmia,aconitine arrhythmia [1]; doses of 0.1-2.5 mg/kg,did not prevent the development of aconitine arrhythmia
CCN(CC)CC(=O)Nc1c(C)cccc1C [lidocaine],perdition of narcotized rats prior to administration of aconitine,aconitine arrhythmia [1],perdition of a portion of the narcotized rats
same,duration of prevention of aconitine arrhythmia,aconitine arrhythmia [1],3 to 5 min
same,duration of arrhythmia-arresting effect,"aconitine arrhythmia [2]; 5-10 mg/kg, followed by development of arrhythmia",0.5 to 3 min
"CCN(CC)CCNC(=O)c1ccc(N)cc1 [novocainamide, β-diethylaminoethylamide hydrochloride of p-aminobenzoic acid]",animals with antiarrhythmic effect,"aconitine arrhythmia [1]; 60 mg/kg intravenously, preliminary administration",50%
same,antiarrhythmic index (LD50/ED50),aconitine arrhythmia [1],2.3
same,rats with restored normal sinus rhythm,aconitine arrhythmia [2]; 20 mg/kg,3 rats out of 6
same,duration of restored normal sinus rhythm (average),"aconitine arrhythmia [2]; 20 mg/kg, then stable arrhythmia appeared again",~10 min
same,animals with antiarrhythmic effect,aconitine arrhythmia [2]; 40 mg/kg,83.3%
same,"rats with effect only during the first 20 minutes, then stable arrhythmia reappeared",aconitine arrhythmia [2]; 40 mg/kg,50%
same,"duration of effect, after which stable arrhythmia reappeared","aconitine arrhythmia [2]; 40 mg/kg, in 50% of the rats",20 min
same,antiarrhythmic index (LD50/ED50),aconitine arrhythmia [2]; against background of developing aconitine arrhythmia,6.9
same,"antiarrhythmic activity, barium chloride model",[3]; comparison with preparation and quinidine,weakest antiarrhythmic activity
same,duration of antiarrhythmic effect,[4]; 40-50 mg/kg,4 to 7 min
same,duration of antiarrhythmic effect,[4]; 70-80 mg/kg,30 to 60 min
same,dose producing the antiarrhythmic effect,"[4]; dog, in vivo",40 to 50 mg/kg
same,animals with antiarrhythmic effect,[5]; 10 mg/kg,40%
same,duration of antiarrhythmic effect,[5]; 10 mg/kg,2 to 5 min
same,duration of antiarrhythmic effect,[5]; 20-30 mg/kg,20 to 25 min
same,onset of antiarrhythmic effect,[5],1.0 to 1.5 min
same,bradycardia,[5],bradycardia
same,reduction of arterial pressure,[5],20-70 mm Hg
same,rhythm of cardiac contractions,[6],sharp disturbances of the rhythm of cardiac contractions
"CCN(CC)CCOC(=O)c1ccc(N)cc1 [novocaine, reference compound]",duration of local anesthetic effect (average),[7],~90 min
"CC(C)NCC(O)COc1cccc2ccccc12 (stereo not drawn) [obzidan, propranolol]",animals in which arrhythmia was developed (after retardation),aconitine arrhythmia [1]; 5 mg/kg,60%
same,retardation of the time of appearance of aconitine arrhythmia,"aconitine arrhythmia [1]; 5 mg/kg, in all test rats",5 to 8 min
same,efficacy against developing aconitine arrhythmia,aconitine arrhythmia [2],inefficient
C=C[C@H]1C[N@@]2CC[C@H]1C[C@@H]2[C@@H](O)c1ccnc2ccc(OC)cc12 [quinidine],animals with antiarrhythmic effect,aconitine arrhythmia [1]; 20 mg/kg,50%
same,antiarrhythmic index (LD50/ED50),aconitine arrhythmia [1],2.75
same,antiarrhythmic activity against developing aconitine arrhythmia,"aconitine arrhythmia [2]; doses of 2.5, 5, 10, 20 mg/kg",no antiarrhythmic activity
same,antiarrhythmic effect relative to the preparation,[3]; 10 mg/kg,approximately corresponded to the antiarrhythmic effect produced by the preparation according to the present invention in the dose of 0.1 mg/kg
same,effect on cardiac arrhythmia,[4]; 5-10 mg/kg,weak effect
same,animals with antiarrhythmic effect,[5]; 10 mg/kg,30%
same,duration of antiarrhythmic effect,[5]; 10 mg/kg,2 to 5 min
same,duration of antiarrhythmic effect,[5]; 20-30 mg/kg,20 to 25 min
same,onset of antiarrhythmic effect,[5],2 to 3 min
same,bradycardia,[5],bradycardia
same,reduction of arterial pressure,[5],20-70 mm Hg
same,negative inotropic effect compared with the preparation,frog's heart,considerably superior to the preparation of the present invention
same,effect on isolated heart,frog's heart; concentration of 10^-4 to 3.10^-4 g/ml,"along with a sharp inhibition of the amplitude of cardiac contractions, arrhythmia"
same,rhythm of cardiac contractions,[6],sharp disturbances of the rhythm of cardiac contractions
O=C(O)O [sodium bicarbonate],effect on the inhibition of conductivity by the preparation,[6]; in vivo,diminishes the inhibiting effect of the preparation on conductivity
same,effect on ECG changes caused by toxic doses of the preparation,"[8]; 4% solution, 100 to 200 ml",equalizes distinctly pronounced electrocardiographic changes
same,effect on reduced arterial pressure in overdosing of the preparation,[8]; infusion of sodium bicarbonate,levelled
same,time to equalization of ECG changes caused by toxic doses of the preparation,"[8]; intravenous infusion of 4% solution, 100 to 200 ml, after beginning of infusion",15 to 30 min
CCN(CC)CC(=O)Nc1c(C)cc(C)cc1C [trimecaine],perdition of narcotized rats prior to administration of aconitine,aconitine arrhythmia [1],perdition of a portion of the narcotized rats
same,duration of prevention of aconitine arrhythmia,aconitine arrhythmia [1],3 to 5 min
same,efficacy against developing aconitine arrhythmia,aconitine arrhythmia [2],inefficient
